{"source": "patent US11337971B2", "about": "“Dopamine D3 receptor selective antagonists/partial agonists and uses thereof” (THE UNITED STATES OF AMERICA, AS REPRESENTED BY THE …, priority 2018, dated 2022)", "key": {"[1]": {"experiment": "Phase I metabolic stability in human liver microsomes", "type": "in vitro ADME"}, "Male Long-Evans rats [2]": {"system": "Male Long-Evans rats", "experiment": "Maintenance of oxycodone self-administration and oxycodone-seeking after oxycodone was replaced by saline", "type": "in vivo, rat", "details": "i.p.", "experimental": "Four groups of rats (n=7/group) were first trained to self-administer oxycodone at a dose of 100 μg/kg/infusion for 2 weeks followed by 50 μg/kg/infusion for the rest of the training sessions and for the test session. The daily self-administration of oxycodone at the low dose continued until the average oxycodone infusions/session varied less than 10% over 3 consecutive sessions (normally 6-10 sessions were required to meet this criterion of stability). On the following test day, the groups of rats were first systemically injected with either vehicle or a dose of compound (±)-29 (5, 15 or 25 mg/kg, i.p.), and 15 min later, the animals were allowed to self-administer oxycodone.\nFollowing completion of the self-administration testing, the rats continued to self-administer oxycodone (50 μg/kg/infusion) for additional 4 sessions. On the next day, the animals were re-assigned into 3 groups, and pretreated with either vehicle or 1 of the 2 doses of compound (±)-29 (5 or 15 mg/kg). Fifteen min later, the animals were placed in the chambers, and allowed to lever-press for an extinction session during which saline was substituted for […]. Other conditions remain the same as […] session."}, "5-HT2C": {"biological_target": "5-HT2C (Homo sapiens (Human), UniProt P28335)", "sequence (P28335 33-458, species assumed)": "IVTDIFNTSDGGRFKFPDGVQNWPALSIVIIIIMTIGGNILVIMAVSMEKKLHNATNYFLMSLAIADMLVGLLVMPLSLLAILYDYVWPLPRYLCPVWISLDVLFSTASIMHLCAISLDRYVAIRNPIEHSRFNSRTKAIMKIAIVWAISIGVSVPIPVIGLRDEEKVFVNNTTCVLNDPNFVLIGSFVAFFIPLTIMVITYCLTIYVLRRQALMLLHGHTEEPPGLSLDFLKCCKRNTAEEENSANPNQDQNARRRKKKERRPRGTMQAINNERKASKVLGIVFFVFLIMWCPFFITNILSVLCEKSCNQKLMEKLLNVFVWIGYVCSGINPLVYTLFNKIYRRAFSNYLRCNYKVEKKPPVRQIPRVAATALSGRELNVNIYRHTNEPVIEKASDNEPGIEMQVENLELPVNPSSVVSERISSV", "experiment": "5-HT2C [125I]DOI binding", "details": "Table 3a; read-out: 5-HT2C [125I]DOI Ki ± SEM"}, "Male Long-Evans rats [3]": {"system": "Male Long-Evans rats", "experiment": "Hot plate test of oxycodone-induced antinociceptive response in rats", "type": "in vivo, rat", "experimental": "Nociceptive tests were performed using a hot plate device (Model 39, IITC Life Science Inc., Woodland Hills, Calif., USA). The rat was put inside a transparent cage on the hot plate (52±0.2° C.). When thermal nociceptive signs such as licking, stomping the hind paw, or jumping from the plate appeared, the rat was immediately removed from the cage. […] The cut-off time for the test was 60 s to avoid tissue damage.\nThese experiments involved 8 groups of rats (n=8-9/group) in 2 series of repeated testing: 4 groups were used to test the effects of compound (±)-29 pretreatment on the time course of antinociception induced by oxycodone at a single dose, and another 4 groups were used to test the effects of compound (±)-29 pretreatment on the antinociception induced by various oxycodone doses. Each rat was first habituated to the testing environment for 1 h, followed by placement on the hot plate without treatment to obtain baseline response latencies. The groups in the time course test received baseline testing. Then, group 1 was pretreated with vehicle, and the other 3 groups were pretreated with a dose of compound (±)-29 (5, 15 or 25 mg/kg, i.p.). Fifteen min following the pretreatment, each rat was challenged with a saline injection (1 ml/kg) and, 30 min later, tested for the second time on the hot plate. On the next day, each group received the same pretreatment as on day 1, but challenged with oxycodone (2 mg/kg, i.p.), and each rat was then tested again at 30-, 60- and 120-min following oxycodone challenge. […] Data were calculated as % of maximum percentage effect (% MPE) using the formula: (treatment value−basal value)/(cutoff value−basal value)×100.\nMethods: Compound (±)-29 was administered 15 minutes before saline or oxycodone challenge at 5 mg/kg, 15 mg/kg, and 25 mg/kg. […] The rat was then immediately removed from the hot plate and the time latency was recorded."}, "human dopamine D3R": {"biological_target": "human dopamine D3R (Homo sapiens (Human), UniProt P35462)", "sequence (P35462 whole entry)": "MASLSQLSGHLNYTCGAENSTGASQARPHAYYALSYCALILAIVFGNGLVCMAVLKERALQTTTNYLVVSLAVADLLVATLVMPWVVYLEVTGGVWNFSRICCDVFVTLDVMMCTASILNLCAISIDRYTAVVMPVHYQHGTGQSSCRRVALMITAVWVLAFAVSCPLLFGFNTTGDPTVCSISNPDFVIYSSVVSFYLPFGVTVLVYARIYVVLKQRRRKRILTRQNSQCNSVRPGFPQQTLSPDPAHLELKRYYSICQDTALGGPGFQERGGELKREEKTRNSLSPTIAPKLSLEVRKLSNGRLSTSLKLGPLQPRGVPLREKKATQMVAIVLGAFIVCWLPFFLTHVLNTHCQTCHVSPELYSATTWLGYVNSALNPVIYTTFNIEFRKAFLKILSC", "experiment": "D3R mitogenesis assay: stimulation or inhibition of quinpirole-stimulated mitogenesis in CHO cells", "type": "cell-based", "details": "Table 2a; inhibition of quinpirole-stimulated mitogenesis; read-out: Antagonist IC50 ± SEM"}, "Male Long-Evans rats [4]": {"system": "Male Long-Evans rats", "experiment": "Oxycodone-triggered reinstatement of drug-seeking behavior", "type": "in vivo, rat", "details": "5-15 mg/kg, i.p., oxycodone priming 1 mg/kg", "experimental": "For the three groups from Experiment 2, extinction sessions continued without drug treatment until the rats' average active lever-presses/session decreased to less than 10 responses over 3 consecutive sessions. On the following day, 2 groups of rats were first pretreated with 1 of 2 doses of compound (±)-29 (5 or 15 mg/kg) while another group with vehicle. Fifteen min following pretreatment, all the animals received a non-contingent injection of oxycodone priming (1 mg/kg, i.p.) and then were placed into the same operant chambers for another extinction session."}, "[5]": {"system": "oxycodone-induced locomotor sensitization and CPP", "experiment": "Acquisition of oxycodone-induced locomotor sensitization and CPP", "details": "in vivo"}, "Male Long-Evans rats [6]": {"system": "Male Long-Evans rats", "experiment": "Oxycodone self-administration under progressive ratio (PR) reinforcement", "details": "5, 15, 25 mg/kg, i.p."}}, "note": "Entries after “also recorded” stand apart in the source; their conditions may differ.", "data": [{"smiles": "CCc1cc(Cl)c(OC)c(N2CCN(CC(O)CCNC(=O)c3cc4ccccc4[nH]3)CC2)c1", "note": "(racemic) [Compound 29, N-(4-(4-(3-chloro-5-ethyl-2-methoxyphenyl)piperazin-1-yl)-3-hydroxybutyl)-1H-indole-2-carboxamide]", "values": [{"measurement": "% at 0 min.", "setting": "[1]; 0 min", "result": 100, "unit": "%"}, {"measurement": "% at 30 min.", "setting": "[1]; 30 min", "result": 89, "unit": "%"}, {"measurement": "% at 60 min.", "setting": "[1]; 60 min", "result": 73, "unit": "%"}, {"measurement": "oxycodone infusions during maintenance of self-administration", "setting": "Male Long-Evans rats [2]; 5-25 mg/kg", "result": "dose-dependently decreased oxycodone infusions; also recorded: dose-dependently reduced oxycodone self-administration"}, {"measurement": "oxycodone-seeking behavior (extinction responding) when saline was substituted for oxycodone", "setting": "Male Long-Evans rats [2]; 5 or 15 mg/kg", "result": "dose-dependently inhibited oxycodone-seeking behavior; also recorded: dose-dependently reduced"}, {"measurement": "Ki", "setting": "5-HT2C", "result": "2190 ± 460", "unit": "nM"}, {"measurement": "effect of pretreatment on oxycodone antinociception (% MPE), hot plate", "setting": "Male Long-Evans rats [3]; 5-25 mg/kg i.p. pretreatment, oxycodone 0.5-4 mg/kg, effect at 25 mg/kg", "result": "significant elevation of MPE %; also recorded: potentiated the antinociceptive effects of oxycodone; also recorded: produced a leftward shift in the dose-response curve of oxycodone; also recorded: significantly potentiated oxycodone's effect"}, {"measurement": "thermal response 30 minutes following saline or oxycodone (2 mg/kg, i.p.) challenge", "setting": "Male Long-Evans rats [3]; Example 6, 5, 15, 25 mg/kg, 15 minutes before challenge", "result": "no significant effects on animal's thermal response"}, {"measurement": "IC50", "setting": "human dopamine D3R", "result": "360 ± 100", "unit": "nM"}, {"measurement": "oxycodone-primed reinstatement of active lever-presses", "setting": "Male Long-Evans rats [4]", "result": "dose-dependently blocked; also recorded: dose dependently reduced reinstatement to oxycodone seeking"}, {"measurement": "acquisition of oxycodone-induced locomotor sensitization and CPP", "setting": "[5]", "result": "significantly inhibits acquisition of both oxycodone-induced locomotor sensitization and CPP"}, {"measurement": "break-point for oxycodone self-administration under PR reinforcement", "setting": "Male Long-Evans rats [6]", "result": "significantly and dose-dependently lowers the break-point; also recorded: dose-dependently lowered the PR break-point"}]}]}
